Test results published in patent US8546380B2, “Aminodihydrothiazine derivatives” (Shionogi & Co., Ltd., priority 2005, dated 2013).
Read-outs that look alike come from different tables or passages of the source.

Biological target: recombinant human BACE-1 protein (Homo sapiens (Human), UniProt P56817)
Assay: Measurement of Inhibition of β-Secretase Activity
Assay type: biochemical
Method: Zero point five μL of the test compounds (dissolved in N,N′-dimethylsulfoxide) were incubated with 48.5 μL of the fluorescence-quenched peptide substrate solution (Biotin-XSEVNLDAEFRHDSGC-Eu:X=ε-amino-n-capronic acid, Eu=Europium cryptate) and 1 μL of recombinant human BACE-1 protein (R&D systems) for 3 h at 30° C. in the 96 well half-area plate (black color plate, Costar). The substrate peptide was synthesized by reacting with Biotin-XSEVNLDAEFRHDSGC (Peptide Institute) and Cryptate TBPCOOH mono SMP (CIS bio international). […] The enzymatic reaction was performed in sodium acetate buffer (50 mM sodium acetate (pH5.0), 0.008% Triton X-100). After the reaction, a 50 μL of 8.0 μg/mL Streptavidin-XL665 (CIS bio international) dissolved in phosphate buffer (150 mM K2HPO4—KH2PO4 (pH 7.0), 0.008% Triton X-100, 0.8 M KF) was add to each well and incubated for 1 h at 30° C.

[1] = fluorescence-quenched peptide substrate 18 nM, BACE-1 7.4 nM, 3 h at 30° C., pH5.0, read-out: IC50 value
[2] = recombinant human BACE-1 protein, 3 h at 30° C., pH5.0, read-out: IC50 value

Sequence of recombinant human BACE-1 protein (P56817 46-501): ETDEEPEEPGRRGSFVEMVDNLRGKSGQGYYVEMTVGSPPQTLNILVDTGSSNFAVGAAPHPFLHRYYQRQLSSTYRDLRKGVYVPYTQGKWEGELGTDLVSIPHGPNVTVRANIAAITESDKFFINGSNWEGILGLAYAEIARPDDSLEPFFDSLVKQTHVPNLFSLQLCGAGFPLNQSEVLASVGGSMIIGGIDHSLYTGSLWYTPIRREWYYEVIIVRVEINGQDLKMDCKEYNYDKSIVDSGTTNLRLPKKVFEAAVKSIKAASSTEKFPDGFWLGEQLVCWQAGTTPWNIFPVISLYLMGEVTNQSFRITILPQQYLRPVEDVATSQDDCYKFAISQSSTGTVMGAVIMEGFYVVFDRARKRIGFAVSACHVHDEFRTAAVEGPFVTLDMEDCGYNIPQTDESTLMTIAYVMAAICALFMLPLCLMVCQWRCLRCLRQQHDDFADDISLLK

Row | IC50 [1] | Structure (SMILES) | also measured
1 | < 100 µM | CC1(c2cccc(CNC(=O)Nc3ccccc3)c2)CCSC(N)=N1 (stereo not drawn) [Compound 4] | –
2 | < 100 µM | CCn1c2ccccc2c2cc(NC(=O)COc3cccc(C4(C)CCSC(N)=N4)c3)ccc21 (stereo not drawn) [Compound 787] | –
3 | < 100 µM | CC1(c2cccc(NC(=O)c3c[nH]c(=O)cn3)c2)CCSC(N)=N1 (stereo not drawn) [Compound 1077] | –
4 | < 100 µM | CC1(c2cccc(NC(=O)Nc3ccc(Cl)cc3)c2)CCSC(N)=N1 (stereo not drawn) [Compound 181] | –
5 | < 100 µM | Cc1ccc([S+]([O-])Nc2ccc(F)c(C3(C)CCSC(N)=N3)c2)cc1 (stereo not drawn) [Compound 232] | –
6 | < 100 µM | CC1(c2ccc(F)c(NC(=O)c3ccccn3)c2)CCSC(N)=N1 (stereo not drawn) [Compound 637] | –
7 | < 100 µM | Cc1ccc(NC(=O)COc2cccc(C3(C)CCSC(N)=N3)c2)cc1 (stereo not drawn) [Compound 746] | –
8 | – | CC1(c2cccc(NC(=O)c3nc4ccccc4s3)c2)CCSC(N)=N1 (stereo not drawn) [Compound 1108] | IC50: < 100 µM
9 | – | CC1(c2ccc(F)c(NC(=O)c3ccc4ccccc4n3)c2)CCSC(N)=N1 (stereo not drawn) [Compound 799] | IC50 [2]: 6.7 µM
10 | < 100 µM | CC1(c2cccc(NC(=O)C(=O)c3ccccc3)c2)CCSC(N)=N1 (stereo not drawn) [Compound 1272] | –
11 | < 100 µM | CC1(c2cccc(NC(=O)CCNC(=O)c3ccc(Br)cc3)c2)CCSC(N)=N1 (stereo not drawn) [Compound 1255] | –
12 | < 100 µM | Cc1ccc(CO/N=C/c2cccc(C3(C)CCSC(N)=N3)c2)cc1 (stereo not drawn) [Compound 719] | –
13 | < 100 µM | CC1(c2cccc(OCC(=O)Nc3ccccc3)c2)CCSC(N)=N1 (stereo not drawn) [Compound 200] | –
14 | < 100 µM | CC1(c2cccc(NC(=O)c3cccc(Cl)n3)c2)CCSC(N)=N1 (stereo not drawn) [Compound 298] | –
15 | < 100 µM | CC1(c2cccc(OCC(=O)Nc3ccc4c(c3)OCCO4)c2)CCSC(N)=N1 (stereo not drawn) [Compound 509] | –
16 | < 100 µM | COCCCc1ccc(C(=O)Nc2cccc(C3(C)CCSC(N)=N3)c2)nc1 (stereo not drawn) [Compound 1150] | –
17 | < 100 µM | CC1(c2cccc(NC(=O)c3cnc(NCCO)cn3)c2)CCSC(N)=N1 (stereo not drawn) [Compound 1263] | –
18 | < 100 µM | CC1(c2cccc(CCC(=O)Nc3ccc(F)cc3)c2)CCSC(N)=N1 (stereo not drawn) [Compound 677] | –
19 | < 100 µM | CC1(c2cccc(NC(=O)c3cnc(N4CCCC4)cn3)c2)CCSC(N)=N1 (stereo not drawn) [Compound 1271] | –
20 | – | CC1(c2cc(NC(=O)c3ccco3)cc(C(F)(F)F)c2)CCSC(N)=N1 (stereo not drawn) [Compound 163] | IC50 [2]: 2.28 µM
21 | < 100 µM | CCOc1ccc(NC(=O)COc2cccc(C3(C)CCSC(N)=N3)c2)cc1 (stereo not drawn) [Compound 809] | –
22 | – | CC1(c2cc(Br)cc(NC(=O)c3cccs3)c2)CCSC(N)=N1 (stereo not drawn) [Compound 490] | IC50 [2]: 5.1 µM
23 | < 100 µM | CC1(c2cccc(NC(=O)c3ccc(F)nc3)c2)CCSC(N)=N1 (stereo not drawn) [Compound 850] | –
24 | < 100 µM | CC(=O)Nc1ccc(C(=O)Nc2cccc(C3(C)CCSC(N)=N3)c2)nc1 (stereo not drawn) [Compound 792] | –
25 | – | CC1(c2cccc(OCC(=O)Nc3cccc(O)c3)c2)CCSC(N)=N1 (stereo not drawn) [Compound 269] | IC50 [2]: 7 µM
26 | < 100 µM | Cc1ccc(CCNc2cccc(C3(C)CCSC(N)=N3)c2)cc1 (stereo not drawn) [Compound 876] | –
27 | < 100 µM | COc1ccc2nc(NC(=O)c3cccc(C4(C)CCSC(N)=N4)c3)sc2c1 (stereo not drawn) [Compound 117] | –

Row | IC50 [1] | Structure (SMILES) | also measured
28 | < 100 µM | COCCNc1cnc(C(=O)Nc2cccc(C3(C)CCSC(N)=N3)c2)cn1 (stereo not drawn) [Compound 1269] | –
29 | < 100 µM | CC1(c2cccc(NCc3cccnc3)c2)CCSC(N)=N1 (stereo not drawn) [Compound 389] | –
30 | < 100 µM | Cc1ccc(C(=O)Nc2cccc(C3(C)CCSC(N)=N3)c2)cc1 (stereo not drawn) [Compound 550] | –
31 | < 100 µM | CC1(c2cccc(OCC(=O)Nc3ccc(O)cc3)c2)CCSC(N)=N1 (stereo not drawn) [Compound 402] | –
32 | < 100 µM | Cc1ccc(S(=O)(=O)Nc2cc(Br)cc(C3(C)CCSC(N)=N3)c2)cc1 (stereo not drawn) [Compound 1172] | –
33 | < 100 µM | CC1(c2cccc(NC(=O)/C=C/c3ccccn3)c2)CCSC(N)=N1 (stereo not drawn) [Compound 1237] | –
34 | < 100 µM | CC1(c2cccc(NC(=O)/C=C/c3ccccc3)c2)CCSC(N)=N1 (stereo not drawn) [Compound 1258] | –
35 | < 100 µM | CC1(c2cccc(NC(=O)c3ccc4c(c3)OCO4)c2)CCSC(N)=N1 (stereo not drawn) [Compound 796] | –
36 | < 100 µM | CC1(c2cccc(NC(=O)c3cc(F)c(Cl)cc3F)c2)CCSC(N)=N1 (stereo not drawn) [Compound 35] | –
37 | < 100 µM | CC1(c2cccc(NC(=O)c3ccccn3)c2)CCSC(N)=N1 (stereo not drawn) [Compound 352] | –
38 | < 100 µM | CC1(c2cc(NC(=O)c3ccco3)cc(-c3ccc(Cl)cc3)c2)CCSC(N)=N1 (stereo not drawn) [Compound 725] | –
39 | < 100 µM | CC1(c2cccc(NC(=O)c3ncccc3C(=O)c3ccccc3)c2)CCSC(N)=N1 (stereo not drawn) [Compound 1013] | –
40 | < 100 µM | CC1(c2cccc(NC(=O)c3ccc(OC(F)F)cc3)c2)CCSC(N)=N1 (stereo not drawn) [Compound 905] | –
41 | < 100 µM | CC1(c2cccc(OCC(=O)Nc3ccc(Cl)c4ccccc34)c2)CCSC(N)=N1 (stereo not drawn) [Compound 723] | –
42 | < 100 µM | CC1(c2cccc(NC(=O)c3ccc(NCc4ccncc4)cn3)c2)CCSC(N)=N1 (stereo not drawn) [Compound 393] | –
43 | < 100 µM | CC1(c2cccc(Nc3nc4ccccc4[nH]3)c2)CCSC(N)=N1 (stereo not drawn) [Compound 681] | –
44 | < 100 µM | CC1(c2cccc(NC(=O)c3ccccc3C#N)c2)CCSC(N)=N1 (stereo not drawn) [Compound 711] | –
45 | < 100 µM | CC1(c2cccc(NCC3CCCCC3)c2)CCSC(N)=N1 (stereo not drawn) [Compound 120] | –
46 | < 100 µM | CC1(c2cccc(NC(=O)c3cccc(I)c3)c2)CCSC(N)=N1 (stereo not drawn) [Compound 691] | –
47 | < 100 µM | COCCn1c(C(=O)Nc2cccc(C3(C)CCSC(N)=N3)c2)cc2ccccc21 (stereo not drawn) [Compound 77] | –
48 | < 100 µM | CC1(c2cccc(NC(=O)c3ccc4ncsc4c3)c2)CCSC(N)=N1 (stereo not drawn) [Compound 228] | –
49 | < 100 µM | CC1(c2cccc(NC(=O)c3ccc(C#N)nc3)c2)CCSC(N)=N1 (stereo not drawn) [Compound 819] | –
50 | < 100 µM | CCCNc1ccc(C(=O)Nc2cccc(C3(C)CCSC(N)=N3)c2)nc1 (stereo not drawn) [Compound 114] | –
51 | < 100 µM | CC1(c2cc(NC(=O)c3cc4cc(OC(F)(F)F)ccc4[nH]3)ccc2F)CCSC(N)=N1 (stereo not drawn) [Compound 939] | –
52 | < 100 µM | CC1(c2cc(NC(=O)c3cocn3)ccc2F)CCSC(N)=N1 (stereo not drawn) [Compound 97] | –
53 | < 100 µM | CC1(c2cccc(NC(=O)c3ccc([N+](=O)[O-])cc3)c2)CCSC(N)=N1 (stereo not drawn) [Compound 209] | –
54 | < 100 µM | Cc1ccc(C(=O)Nc2cc(Br)cc(C3(C)CCSC(N)=N3)c2)cc1 (stereo not drawn) [Compound 971] | –

Row | IC50 [1] | Structure (SMILES) | also measured
55 | < 100 µM | CC1(c2cccc(NC(=O)c3ccc(O)cc3)c2)CCSC(N)=N1 (stereo not drawn) [Compound 1174] | –
56 | < 100 µM | CC1(c2cccc(NCCc3ccccc3)c2)CCSC(N)=N1 (stereo not drawn) [Compound 409] | –
57 | < 100 µM | CC1(c2cccc(NCc3ccc(F)cc3)c2)CCSC(N)=N1 (stereo not drawn) [Compound 1243] | –
58 | < 100 µM | COC(=O)c1cccc(C(=O)Nc2cccc(C3(C)CCSC(N)=N3)c2)c1 (stereo not drawn) [Compound 346] | –
59 | < 100 µM | CC1(c2cccc(/C=C/C(=O)Nc3ccc(F)cc3)c2)CCSC(N)=N1 (stereo not drawn) [Compound 415] | –
60 | < 100 µM | CCc1ccc(C(=O)Nc2cccc(C3(C)CCSC(N)=N3)c2)cc1 (stereo not drawn) [Compound 919] | –
61 | < 100 µM | Cn1cccc1C(=O)Nc1ccc(F)c(C2(C)CCSC(N)=N2)c1 (stereo not drawn) [Compound 497] | –
62 | < 100 µM | Cn1c(CNc2cccc(C3(C)CCSC(N)=N3)c2)cc2ccccc21 (stereo not drawn) [Compound 78] | –
63 | – | CC1(c2cc(Br)cc(NC(=O)c3ccco3)c2)CCSC(N)=N1 (stereo not drawn) [Compound 786] | IC50 [2]: 0.156 µM
64 | < 100 µM | Cc1ccc(S(=O)(=O)Nc2cc(C3(C)CCSC(N)=N3)ccc2F)cc1 (stereo not drawn) [Compound 61] | –
65 | < 100 µM | Cc1noc(C)c1C(=O)Nc1cccc(C2(C)CCSC(N)=N2)c1 (stereo not drawn) [Compound 491] | –
66 | < 100 µM | COc1ccc(C(=O)Nc2cccc(C3(C)CCSC(N)=N3)c2)cc1 (stereo not drawn) [Compound 300] | –
67 | < 100 µM | CCc1cc(NC(=O)c2ccc(C)cc2)cc(C2(C)CCSC(N)=N2)c1 (stereo not drawn) [Compound 928] | –
68 | < 100 µM | CC1(c2cc(NC(=O)c3ccc(F)cn3)cc(S(C)(=O)=O)c2)CCSC(N)=N1 (stereo not drawn) [Compound 836] | –
69 | < 100 µM | Cc1ccc(F)c(C(=O)Nc2cccc(C3(C)CCSC(N)=N3)c2)c1 (stereo not drawn) [Compound 373] | –
70 | < 100 µM | COc1cnc(C(=O)Nc2cccc(C3(C)CCSC(N)=N3)c2)c(N(C)C)n1 (stereo not drawn) [Compound 214] | –
71 | < 100 µM | CC1(c2ccc(C(=O)NCc3ccc(Cl)cc3)s2)CCSC(N)=N1 (stereo not drawn) [Compound 1148] | –
72 | – | CC1(c2cc(Cl)cc(NC(=O)c3ccc(Cl)cn3)c2)CCSC(N)=N1 (stereo not drawn) [Compound 739] | IC50 [2]: 0.049 µM
73 | < 100 µM | CC1(c2cccc(/C=N/Oc3ccccc3)c2)CCSC(N)=N1 (stereo not drawn) [Compound 383] | –
74 | < 100 µM | CCOCc1ccc(C(=O)Nc2cccc(C3(C)CCSC(N)=N3)c2)nc1 (stereo not drawn) [Compound 1185] | –
75 | < 100 µM | CC1(c2cc(Br)cc(NC(=O)c3ccc(Cl)cc3)c2)CCSC(N)=N1 (stereo not drawn) [Compound 463] | –
76 | < 100 µM | CN1CCOc2cc(C(=O)Nc3cccc(C4(C)CCSC(N)=N4)c3)ccc21 (stereo not drawn) [Compound 1004] | –
77 | < 100 µM | CCCCNC(=O)c1cc(C2(C)CCSC(N)=N2)ccc1F (stereo not drawn) [Compound 1074] | –
78 | < 100 µM | CC1(c2cc(NC(=O)c3cc4ccccc4[nH]3)ccc2F)CCSC(N)=N1 (stereo not drawn) [Compound 344] | –
79 | < 100 µM | CC1(c2cccc(NC(=O)c3cc([N+](=O)[O-])ccn3)c2)CCSC(N)=N1 (stereo not drawn) [Compound 770] | –
80 | < 100 µM | CC1(c2cccc(NCc3ccc4ccccc4c3)c2)CCSC(N)=N1 (stereo not drawn) [Compound 443] | –

Row | Structure (SMILES) | IC50 [1] | also measured
81 | CC1(c2cccc(NC(=O)c3ncc(Cl)cc3Cl)c2)CCSC(N)=N1 (stereo not drawn) [Compound 646] | < 100 µM | –
